Data taken from patent US10881639B2, “Use of composition of multivitamin in preparing drug for stimulating gastrointestinal system motility” (Zensun (Shanghai) Science & Technology, Co., Ltd., priority 2015, dated 2021).
Structures can show the parent of a compound that is named as a salt.

Tested on: mice with 2.5 mg/kg loperamide-induced constipation
Test: Small intestinal propulsive rate of a charcoal solution in mice with 2.5 mg/kg loperamide-induced constipation, with positive controls (Example 2)
Type: in vivo, mouse
Conditions: for Effect on the small intestinal propulsive rate (%) vs model group, in words: positive drugs at 1× dose, loperamide-induced constipation mouse model; for Propulsive distance of the charcoal solution / Small intestinal propulsive rate: positive drugs intragastric: itopride 30.75, naloxone 5.0, domperidone 6.16, mosapride citrate 3.075 mg/kg, loperamide 2.5 mg/kg s.c., 20 min after charcoal
Text: 1.2 Experimental Animals Species: mouse Strains: C57BL/6 Gender and quantity: Female, 65 Animal week-age: 8-9 weeks Weight range: 19.0-25.0 g Animal sources: Shanghai Lingchang Biotechnology Co. LTD Animal certificate number: 2013001804393 2. Experimental Design and Methods 2.1 Test Grouping:
Experimental animals were randomly divided into 8 groups (8 animals per group) by the random number table method.
2.2 Reagent Preparation 1) 0.5% CMC—Na solution: 2.0 g of CMC—Na powder was weighed and 300 ml ultra-pure water was slowly added thereto; the mixture was subjected to magnetic stirring until it was completely dissolved to reach a constant volume of 400 ml, thereby preparing a clear solution of 0.5%, which was stored at 4° C. for later use. 2) 1% Tween-80 in saline: 40 ml saline was accurately measured using a measuring cylinder and added into a 50 ml centrifuge tube; 400 μl Tween-80 was measured using a pipette and added into the centrifuge tube; and the mixture was subjected to vortex oscillation to be homogeneous and was then placed at room temperature for later use. 3) 5% charcoal solution: 100 g of Arabic gum was accurately weighed and 800 ml water was added thereto; and the solution was boiled until it was transparent. 50 g of activated carbon powder was weighed and added into the above solution and the mixture was boiled for three times. After the solution was cool, water was added to reach a constant volume of 1000 ml. 4) Group for the composition comprising B vitamins (9 components) and C vitamins (5×): one tablet of the composition comprising B vitamins (9 components) and C vitamins was taken; after its grinding, 19.5 ml of 0.5% CMC—Na was added; and the mixture was subjected to oscillation to become homogeneous, thereby forming a stable suspension. It was used immediately after its preparation. 5) Group for the composition comprising B vitamins (9 components) and C vitamins (1×): 2 ml of the suspension of the composition comprising B vitamins (9 components) and C vitamins (5×) was taken and 8 ml of 0.5% CMC—Na was added; and the mixture was subjected to oscillation to become homogeneous, thereby forming a stable suspension. It was used immediately after its preparation. 6) Domperidone: 32.52 ml of 0.5% CMC—Na was added after grinding of one domperidone tablet; and the mixture was subjected to oscillation to become homogeneous, thereby forming a stable suspension. It was used immediately after its preparation. 7) Mosapride citrate: 32.52 ml of 0.5% CMC—Na was added after grinding of one mosapride citrate tablet; and the mixture was subjected to oscillation to become homogeneous, thereby forming a stable suspension. It was used immediately after its preparation. […] It was used immediately after its preparation. […] It was used immediately after its preparation. 10) Loperamide: 5.0 mg of loperamide was accurately weighed and 20 ml of a saline solution with 1.0% Tween 80 was added thereto; after being subjected to oscillation to become homogeneous, the mixture was subjected to ultrasound for at least 5 minutes. This reagent was used immediately after it was prepared. 2.3 Test Methods
After 30 minutes of administration, the control group was injected subcutaneously with the saline solution containing 1.0% Tween 80 while the other groups were injected subcutaneously with a loperamide solution in an injection volume of 10 ml/kg. After a subcutaneous injection for 30 minutes, an intragastric administration of the charcoal solution was performed at an administration volume of 10 ml/kg^[1,2,3].
2.4 Observation Index Small intestinal propulsive rate of the charcoal solution (%)=(the propulsive distance of the charcoal solution/total length of the small intestine)×100
Twenty minutes after an intragastric administration of the charcoal solution, the animal was sacrificed by cervical dislocation and its abdominal cavity was immediately opened to separate the mesentery.

| Structure (SMILES) | Effect on the small intestinal propulsive rate (%) vs model group, in words | Propulsive distance of the charcoal solution [cm] | Small intestinal propulsive rate [%] | Small intestinal propulsive rate (listed as domperidone) [%] | Small intestinal propulsive rate (hydrochloride) [%] | Small intestinal propulsive rate (listed as itopride hydrochloride, hydrochloride) [%] | Small intestinal propulsive rate (listed as mosapride citrate) [%] |
| --- | --- | --- | --- | --- | --- | --- | --- |
| O=c1[nH]c2ccccc2n1CCCN1CCC(n2c(=O)[nH]c3cc(Cl)ccc32)CC1 [Domperidone] | do not have the improvement effect | 4.0 ± 1.1 | 20.1 ± 5.7 | 19.5±3.8 | – | – | – |
| COc1ccc(C(=O)NCc2ccc(OCCN(C)C)cc2)cc1OC [Itopride hydrochloride] | do not have the improvement effect | 5.0 ± 1.2 | – | – | 26.4 ± 7.0 | 26.4±7.0 | – |
| CCOc1cc(N)c(Cl)cc1C(=O)NCC1CN(Cc2ccc(F)cc2)CCO1 (stereo not drawn) [Mosapride Citrate, Mosapride citrate] | do not have the improvement effect | 11.7 ± 2.1 | 60.7 ± 12.1 | – | – | – | 20.1±5.7 |
| C=CCN1CC[C@]23c4c5ccc(O)c4O[C@H]2C(=O)CC[C@@]3(O)[C@H]1C5 [Naloxone] | also has the improvement effect | 3.9 ± 0.8 | 19.5 ± 3.8 | – | – | – | – |
